From the supplement of paper PMC11451515

How the values were obtained:
Assay in all cases: AUC of viability dose-response curve (% viability x log10 dose units); higher = less sensitive
Conditions in all cases: 48 h
NOMO1 = test system: NOMO1
In short: (§1)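 In 1536-well plates, leukemia cells adapted to each medium (500 or 1000 cells/well) were exposed for 48 h at 37°C to library compounds in DMSO across 11 threefold doses, 47 μM down to 0.79 nM. Viability was read by CellTiter-Glo One luminescence and normalised per plate to DMSO and cell-free wells. A four-parameter log-logistic fit over log10 doses was integrated by trapezoidal rule. This yielded the area under the curve, with over-full-viability curves scaled and quality-control failures dropped.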

SEM cells = test system: SEM cells
In short: as §1

P12-Ichikawa = test system: P12-Ichikawa
In short: as §1

[1] = RPMI 5 mM glucose + 10% dialyzed FBS

Row | Compound | AUC of viability dose-response curve (NOMO1; HPLM + 10% dialyzed FBS) | AUC of viability dose-response curve (NOMO1; RPMI 5 mM glucose + 10% FBS) | AUC of viability dose-response curve (NOMO1; [1]) | AUC of viability dose-response curve (SEM cells; HPLM + 10% dialyzed FBS) | AUC of viability dose-response curve (SEM cells; RPMI 5 mM glucose + 10% FBS) | AUC of viability dose-response curve (SEM cells; [1]) | AUC of viability dose-response curve (P12-Ichikawa; HPLM + 10% dialyzed FBS) | AUC of viability dose-response curve (P12-Ichikawa; RPMI 5 mM glucose + 10% FBS) | AUC of viability dose-response curve (P12-Ichikawa; [1])
1 | O=C(CCCCCCC(=O)Nc1cccnc1)NO | 435 | 399 | 432 | 401 | 402 | 375 | 400 | 374 | 368
2 | O=[N+]([O-])c1ncc[nH]1 | 416 | 402 | 400 | 402 | 444 | 459 | 418 | 395 | 414
3 | CCOC(=O)[C@@]1(CCCCCCOc2ccc(Cl)cc2)CO1 | 458 | 444 | 456 | 428 | 413 | 426 | 448 | 452 | 454
4 | C[N]1C=C(C2=CC=CC=C12)\C3=C(\C(=O)NC3=O)C4=C[N](C5CCN(CC5)CC6=NC=CC=C6)C7=C4C=CC=C7 | 458 | 424 | 445 | 461 | 446 | 454 | 472 | 475 | 472
5 | C[C@H](CCC(=O)O)[C@H]1CCC2C3C[C@H](O)[C@@H]4C[C@H](O)CC[C@]4(C)C3CC[C@@]21C (stereo partly specified) | 449 | 458 | 459 | 452 | 452 | 469 | 454 | 450 | 463
6 | COc1ccc(C(CN(C)C)C2(O)CCCCC2)cc1 (stereo unspecified) | – | – | – | 476 | 475 | 424 | 459 | 405 | 461
7 | N\C1=N\C2=C(N=C[N]2COCCO)C(=O)N1 | 464 | 461 | 467 | 451 | 460 | 431 | 472 | 465 | 473
8 | NC(=O)Nc1sc(-c2ccc(F)cc2)cc1C(N)=O | 415 | 436 | 415 | 425 | 304 | 402 | 419 | 421 | 414
9 | C[C@@H]1CCN(C(=O)CC#N)C[C@@H]1N(C)c1ncnc2[nH]ccc12 | 407 | 376 | 414 | 381 | 453 | 430 | 411 | 413 | 377
10 | O=S(=O)([O-])CCS.[Na+] | 367 | 341 | 351 | 452 | 443 | 405 | 379 | 383 | 407
11 | CCc1cc(C(N)=S)ccn1 | 459 | 434 | 460 | 407 | 434 | 447 | 448 | 463 | 452
12 | CCc1cc2c(cc1N1CCC(N3CCOCC3)CC1)C(C)(C)c1[nH]c3cc(C#N)ccc3c1C2=O | – | – | – | – | – | – | 464 | 443 | 451
13 | CN1CCN(c2c(F)cc3c(=O)c(C(=O)O)cn(CCF)c3c2F)CC1 | 466 | 447 | 461 | 439 | 458 | 466 | 459 | 457 | 445
14 | CCOC(=O)C(C#N)C\1C2=CC(=CC=C2O\C(=C1C(=O)OCC)N)Br (stereo unspecified) | 445 | 449 | 447 | 450 | 462 | 421 | 467 | 452 | 463
15 | CCN1C[C@H](C)[N]2C(=C(O)C3=C2\C(=N/N(CC4=CC=C(F)C(=C4)Cl)C3=O)C(=O)NC)C1=O | 408 | 442 | 427 | 440 | 409 | 443 | 458 | 460 | 459
16 | CCn1c(-c2nonc2N)nc2c(C#CC(C)(C)O)ncc(OC[C@H]3CCCNC3)c21 | 360 | 388 | 390 | 341 | 397 | 345 | 358 | 282 | 313
17 | Cc1cc(OCCC[S+](C)(=O)[O-])cc(C)c1-c1cccc(COc2ccc3c(c2)OC[C@H]3CC(=O)O)c1 | 466 | 458 | 434 | 454 | 448 | 445 | 460 | 428 | 430
18 | O=C(O)CCCCC(CCSCc1ccccc1)SCc1ccccc1 (stereo unspecified) | 446 | 457 | 451 | 463 | 458 | 467 | 433 | 462 | 457
19 | CC(C)=CCC/C(C)=C/CC/C(C)=C/CSc1ccccc1C(=O)O | 393 | 432 | 395 | 348 | 355 | 374 | 402 | 366 | 390
20 | CC(C)(F)C[C@H](N[C@@H](c1ccc(-c2ccc([S+](C)(=O)[O-])cc2)cc1)C(F)(F)F)C(=O)NC1(C#N)CC1 | 467 | 427 | 446 | 454 | 452 | 475 | 471 | 471 | 474
21 | CCN(CCO)CCCOc1ccc2c(Nc3cc(CC(=O)Nc4cccc(F)c4)[nH]n3)ncnc2c1 | 372 | 329 | 355 | 302 | 280 | 282 | 256 | 259 | 287
22 | CCN1\C=C(\C(O)=O)C(=O)C2=C1N=C(N3CCNCC3)C(=C2)F | 343 | 380 | 361 | 385 | 407 | 409 | 430 | 386 | 396
23 | O=C1CCC[C@@H]2[C@H]3CCCN4CCC[C@@H](CN12)[C@@H]34 | – | – | – | 324 | 390 | 347 | 426 | 396 | 389
24 | CCCC(C)(COC(N)=O)COC(=O)NC(C)C (stereo unspecified) | 466 | 451 | 446 | 451 | 443 | 412 | 459 | 455 | 458

Row | Compound | AUC of viability dose-response curve (NOMO1; HPLM + 10% dialyzed FBS) | AUC of viability dose-response curve (NOMO1; RPMI 5 mM glucose + 10% FBS) | AUC of viability dose-response curve (NOMO1; [1]) | AUC of viability dose-response curve (SEM cells; HPLM + 10% dialyzed FBS) | AUC of viability dose-response curve (SEM cells; RPMI 5 mM glucose + 10% FBS) | AUC of viability dose-response curve (SEM cells; [1]) | AUC of viability dose-response curve (P12-Ichikawa; HPLM + 10% dialyzed FBS) | AUC of viability dose-response curve (P12-Ichikawa; RPMI 5 mM glucose + 10% FBS) | AUC of viability dose-response curve (P12-Ichikawa; [1])
25 | C[C@]12Cc3cn[nH]c3C[C@@H]1CC[C@@H]1[C@@H]2CC[C@@]2(C)[C@H]1CC[C@]2(C)O | 458 | 467 | 442 | 414 | 473 | 473 | 459 | 466 | 463
26 | CCOc1cc2ncc(C#N)c(Nc3ccc(F)c(Cl)c3)c2cc1NC(=O)/C=C/CN(C)C | 323 | 385 | 353 | 321 | 300 | 312 | 312 | 338 | 320
27 | O=C(Nc1nnc(-c2ccco2)o1)c1cc(-c2ccccc2)nc2ccccc12 | 393 | 455 | 451 | 442 | 348 | 443 | 379 | 448 | 451
28 | C[C@@H]1O[C@@H](O[C@H]2C[C@@H](O)[C@]3(CO)[C@H]4[C@H](O)C[C@]5(C)[C@@H](C6=CC(=O)OC6)CC[C@]5(O)[C@@H]4CC[C@]3(O)C2)[C@H](O)[C@H](O)[C@H]1O | 197 | 248 | 227 | 179 | 234 | 216 | 203 | 235 | 211
29 | CO[C@@]12[C@H](COC(N)=O)C/3=C(N1C[C@@H]4N[C@H]24)/C(=O)/C(=C(N)\C3=O)C | 449 | 453 | 446 | 453 | 431 | 435 | 472 | 443 | 419
30 | CN(C)C1=CC(=CC=C1)C\2=C\3C(=O)N(NC3=C/C(=O)N2C)C4=CC=CC=C4Cl | 292 | 314 | 314 | 322 | 317 | 311 | 312 | 327 | 342
31 | Cc1nc2cc(C(=O)N3CCC4(CC3)CC(=O)c3c(cnn3C(C)C)C4)ccc2[nH]1 | 465 | 471 | 455 | – | – | – | 457 | 469 | 458
32 | CCC(C)N1\N=C/N(C1=O)C2=CC=C(C=C2)N3CCN(CC3)C4=CC=C(OC[C@H]5CO[C@@](C[N]6C=NC=N6)(O5)C7=CC=C(Cl)C=C7Cl)C=C4 (stereo partly specified) | 448 | 456 | 454 | 468 | 472 | 452 | 458 | 463 | 458
33 | COc1ccc(C(=O)c2c(C)n(CCN3CCOCC3)c3ccccc23)cc1 | 466 | 439 | 430 | 459 | 400 | 449 | 456 | 463 | 434
34 | CCC[S+](=O)([O-])Nc1ccc(F)c(C(=O)c2c[nH]c3ncc(Cl)cc23)c1F | 403 | 437 | 440 | 409 | 419 | 425 | 439 | 450 | 431
35 | O=C(Nc1c[nH]nc1-c1nc2cc(CN3CCOCC3)ccc2[nH]1)NC1CC1 | – | – | – | 219 | 202 | 199 | 270 | 282 | 304
36 | N#CC(c1ccnc(NCCc2cccnc2)n1)c1nc2ccccc2s1 (stereo unspecified) | 469 | 475 | 450 | 454 | 448 | 468 | 467 | 473 | 470
37 | CCOC(=O)N1c2ccc(C(F)(F)F)cc2[C@@H](N(Cc2cc(C(F)(F)F)cc(C(F)(F)F)c2)C(=O)OC)C[C@H]1CC | 434 | 460 | 470 | 462 | 460 | 468 | 449 | 466 | 471
38 | CCOc1cc2ncc(C#N)c(Nc3ccc(OCc4ccccn4)c(Cl)c3)c2cc1NC(=O)/C=C/CN(C)C | 279 | 303 | 328 | 276 | 209 | 268 | 293 | 320 | 321
39 | O=C(CCc1ccc(O)cc1)c1c(O)cc(O)cc1O | 457 | 460 | 455 | 433 | 438 | 434 | 459 | 467 | 459
40 | CC(NC(C)(C)C)C(=O)c1cccc(Cl)c1 (stereo unspecified) | 448 | 476 | 456 | 444 | 433 | 436 | 470 | 473 | 472
41 | NC(=O)[C@H]1CCS[C@@H]2C[C@]3(CCCN3C(=O)Cc3ccc(NC(=O)COc4ccc(Cl)cc4Cl)cc3)C(=O)N12 | 356 | 378 | 409 | 376 | 325 | 362 | 316 | 343 | 362
42 | O=C/1NC(=O)C(=C1C2=CN=C3C=CC=C[N]23)/C4=C[N]5CCN(CC6=C5C4=CC=C6)C(=O)N7CCOCC7 | 470 | 465 | 462 | 138 | 153 | 151 | 334 | 301 | 370
43 | CN(C)c1ccc2nc3ccc(N(C)C)cc3[s+]c2c1 | 401 | 374 | 376 | – | – | – | 387 | 386 | 395
44 | COc1cc(Nc2c(C#N)cnc3cc(OCCCN4CCN(C)CC4)c(OC)cc23)c(Cl)cc1Cl | 370 | 397 | 407 | – | – | – | 372 | 382 | 382
45 | CC[C@]12CC[C@H]3[C@@H](CCC/4=C/C(=O)CC[C@H]34)[C@@H]1CC[C@@]2(O)C#C | – | – | – | 417 | 448 | 452 | 413 | 405 | 386
46 | Cc1nn(C)c(COc2ccc(N3CCN([S+](=O)([O-])N(C)C)CC3)cc2)c1-c1cccc2c(CCCOc3cccc4ccccc34)c(C(=O)O)n(CCN3CCOCC3)c12 | – | – | – | 465 | 377 | 458 | 392 | 463 | 456
47 | C/C(=N\NC(=S)N1CCC1)c1ccccn1 | 122 | 140 | 121 | – | – | – | 127 | 120 | 122
48 | C=C1C(=O)[C@@]23C(CC[C@@H]1[C@H]2O)[C@@]12CO[C@]3(O)[C@@H](O)[C@@H]1C(C)(C)CC[C@@H]2O (stereo partly specified) | 435 | 444 | 451 | – | – | – | 409 | 394 | 389
